Columns and labels:
MA2013 = molecular target: T1, MA2013 (Methanosarcina acetivorans, UniProt Q8TPA1); test: fluorescence titration with TNP-ATP; format: binding; conditions: fluorescent ATP analogue; kinase buffer pH 8, 5 mM MgCl2; 541 nm emission
T1 construct: gene MA_2013
T1 sequence (Q8TPA1 1-1000): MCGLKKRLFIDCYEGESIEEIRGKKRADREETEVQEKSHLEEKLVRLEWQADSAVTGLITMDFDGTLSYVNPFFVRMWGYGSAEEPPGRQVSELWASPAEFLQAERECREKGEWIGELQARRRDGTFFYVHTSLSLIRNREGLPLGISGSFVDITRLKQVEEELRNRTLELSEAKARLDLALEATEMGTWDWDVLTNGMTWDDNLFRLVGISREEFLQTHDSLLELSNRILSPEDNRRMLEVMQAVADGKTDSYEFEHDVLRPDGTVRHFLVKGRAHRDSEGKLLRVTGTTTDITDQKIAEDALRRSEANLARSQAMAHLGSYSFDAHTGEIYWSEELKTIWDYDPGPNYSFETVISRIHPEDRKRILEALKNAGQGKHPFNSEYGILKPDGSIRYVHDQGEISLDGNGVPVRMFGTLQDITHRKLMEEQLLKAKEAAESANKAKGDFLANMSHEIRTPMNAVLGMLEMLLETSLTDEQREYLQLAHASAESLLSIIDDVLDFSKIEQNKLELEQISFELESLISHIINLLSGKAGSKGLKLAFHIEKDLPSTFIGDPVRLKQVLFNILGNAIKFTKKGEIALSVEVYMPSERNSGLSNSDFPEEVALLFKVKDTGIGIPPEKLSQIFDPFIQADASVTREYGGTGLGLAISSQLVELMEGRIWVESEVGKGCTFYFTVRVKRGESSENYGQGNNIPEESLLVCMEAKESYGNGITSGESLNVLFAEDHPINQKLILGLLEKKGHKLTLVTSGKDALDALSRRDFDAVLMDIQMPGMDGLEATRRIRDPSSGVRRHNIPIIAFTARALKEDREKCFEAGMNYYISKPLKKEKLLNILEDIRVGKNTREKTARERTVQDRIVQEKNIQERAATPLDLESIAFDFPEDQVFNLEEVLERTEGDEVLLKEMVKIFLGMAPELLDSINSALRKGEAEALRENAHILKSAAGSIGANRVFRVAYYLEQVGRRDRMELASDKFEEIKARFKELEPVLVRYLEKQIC

MA4377 (full-length) = molecular target: T2, MA4377 (full-length) (Methanosarcina acetivorans, UniProt Q8THY1); test: fluorescence titration with TNP-ATP; format: binding; conditions: fluorescent ATP analogue; kinase buffer pH 8, 5 mM MgCl2; 541 nm emission
T2 construct: gene MA_4377
T2 sequence (Q8THY1 1-1028): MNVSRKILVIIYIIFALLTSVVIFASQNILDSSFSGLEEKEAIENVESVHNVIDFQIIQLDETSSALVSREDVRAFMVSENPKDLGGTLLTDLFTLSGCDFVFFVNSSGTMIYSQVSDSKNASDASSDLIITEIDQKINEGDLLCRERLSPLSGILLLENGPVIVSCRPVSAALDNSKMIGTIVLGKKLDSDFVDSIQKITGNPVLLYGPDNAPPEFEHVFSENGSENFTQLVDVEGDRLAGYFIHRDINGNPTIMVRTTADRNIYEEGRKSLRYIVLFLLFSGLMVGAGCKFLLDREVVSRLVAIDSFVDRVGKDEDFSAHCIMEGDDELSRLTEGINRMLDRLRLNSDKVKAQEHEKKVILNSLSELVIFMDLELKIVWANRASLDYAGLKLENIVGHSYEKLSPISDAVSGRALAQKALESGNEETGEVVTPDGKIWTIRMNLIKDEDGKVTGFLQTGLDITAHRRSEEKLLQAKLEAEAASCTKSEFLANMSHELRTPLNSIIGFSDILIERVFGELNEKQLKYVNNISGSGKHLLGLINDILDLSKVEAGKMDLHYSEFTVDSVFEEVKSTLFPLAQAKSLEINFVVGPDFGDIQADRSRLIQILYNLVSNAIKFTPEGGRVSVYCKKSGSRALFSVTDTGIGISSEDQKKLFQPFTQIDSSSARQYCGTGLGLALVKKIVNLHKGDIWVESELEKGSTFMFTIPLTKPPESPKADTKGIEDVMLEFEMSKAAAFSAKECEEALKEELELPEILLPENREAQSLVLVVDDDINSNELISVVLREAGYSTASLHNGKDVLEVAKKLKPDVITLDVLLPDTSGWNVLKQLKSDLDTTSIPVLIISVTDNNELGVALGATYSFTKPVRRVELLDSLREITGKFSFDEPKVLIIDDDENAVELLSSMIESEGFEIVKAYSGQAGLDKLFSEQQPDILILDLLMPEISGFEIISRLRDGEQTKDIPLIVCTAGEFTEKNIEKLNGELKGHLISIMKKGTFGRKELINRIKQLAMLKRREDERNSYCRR

MA2082 = molecular target: T3, MA2082 (Methanosarcina acetivorans, UniProt Q8TP40); test: fluorescence titration with TNP-ATP; format: binding; conditions: fluorescent ATP analogue; kinase buffer pH 8, 5 mM MgCl2; 541 nm emission
T3 construct: gene MA_2082
T3 sequence (Q8TP40 1-698): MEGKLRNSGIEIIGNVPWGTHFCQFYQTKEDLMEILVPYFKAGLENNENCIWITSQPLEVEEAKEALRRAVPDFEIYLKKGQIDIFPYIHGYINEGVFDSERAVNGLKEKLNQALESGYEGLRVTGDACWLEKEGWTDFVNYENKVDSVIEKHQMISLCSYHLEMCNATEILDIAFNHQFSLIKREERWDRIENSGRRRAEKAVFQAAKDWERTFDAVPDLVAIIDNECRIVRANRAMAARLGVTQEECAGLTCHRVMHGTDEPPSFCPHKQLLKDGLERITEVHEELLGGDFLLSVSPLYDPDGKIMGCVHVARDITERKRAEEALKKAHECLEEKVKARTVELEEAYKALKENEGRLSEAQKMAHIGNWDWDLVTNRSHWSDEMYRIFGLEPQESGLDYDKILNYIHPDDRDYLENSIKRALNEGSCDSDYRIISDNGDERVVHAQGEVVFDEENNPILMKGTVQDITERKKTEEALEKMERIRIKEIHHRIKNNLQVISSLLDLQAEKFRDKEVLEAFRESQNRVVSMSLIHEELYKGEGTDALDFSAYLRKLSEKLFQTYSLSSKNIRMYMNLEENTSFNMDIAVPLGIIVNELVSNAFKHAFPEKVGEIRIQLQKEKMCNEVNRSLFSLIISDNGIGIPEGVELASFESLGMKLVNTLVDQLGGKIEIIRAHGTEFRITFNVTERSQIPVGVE

RdmS (MA0863) = molecular target: T4, RdmS (MA0863) (Methanosarcina acetivorans, UniProt Q8TSD5); test: fluorescence titration with TNP-ATP; format: binding; conditions: fluorescent ATP analogue; kinase buffer pH 8, 5 mM MgCl2; 541 nm emission
T4 construct: gene MA_0863
T4 sequence (Q8TSD5 1-749): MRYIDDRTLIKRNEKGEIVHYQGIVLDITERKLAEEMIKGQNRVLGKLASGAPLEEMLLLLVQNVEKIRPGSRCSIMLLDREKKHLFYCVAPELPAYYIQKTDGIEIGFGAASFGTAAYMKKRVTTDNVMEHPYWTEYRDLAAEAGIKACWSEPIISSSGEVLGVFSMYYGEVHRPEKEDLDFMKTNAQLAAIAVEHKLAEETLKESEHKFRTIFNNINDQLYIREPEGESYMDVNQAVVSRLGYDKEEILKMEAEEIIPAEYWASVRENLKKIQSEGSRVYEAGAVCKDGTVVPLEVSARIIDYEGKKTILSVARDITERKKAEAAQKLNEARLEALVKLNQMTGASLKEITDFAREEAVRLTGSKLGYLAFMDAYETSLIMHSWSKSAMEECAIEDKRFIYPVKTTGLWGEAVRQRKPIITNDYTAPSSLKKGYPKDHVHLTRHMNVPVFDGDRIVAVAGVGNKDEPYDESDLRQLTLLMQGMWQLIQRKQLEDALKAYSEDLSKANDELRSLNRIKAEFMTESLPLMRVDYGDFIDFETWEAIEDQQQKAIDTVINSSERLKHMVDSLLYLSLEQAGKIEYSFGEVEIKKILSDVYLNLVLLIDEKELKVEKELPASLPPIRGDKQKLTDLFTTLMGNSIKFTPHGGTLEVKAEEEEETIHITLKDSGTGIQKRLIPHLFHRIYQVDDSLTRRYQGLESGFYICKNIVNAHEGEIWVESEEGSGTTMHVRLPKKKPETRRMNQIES

PKR1R2 = molecular target: T5, PKR1R2 (Methanosarcina acetivorans, UniProt Q8THY1); test: fluorescence titration with TNP-ATP; format: binding; conditions: fluorescent ATP analogue; kinase buffer pH 8, 5 mM MgCl2; 541 nm emission
T5 construct: gene MA_4377; cytosolic truncation PAS-HK-R1-R2 without CHASE4 and HAMP (membrane) part
T5 sequence (Q8THY1 351-1028 limits assumed): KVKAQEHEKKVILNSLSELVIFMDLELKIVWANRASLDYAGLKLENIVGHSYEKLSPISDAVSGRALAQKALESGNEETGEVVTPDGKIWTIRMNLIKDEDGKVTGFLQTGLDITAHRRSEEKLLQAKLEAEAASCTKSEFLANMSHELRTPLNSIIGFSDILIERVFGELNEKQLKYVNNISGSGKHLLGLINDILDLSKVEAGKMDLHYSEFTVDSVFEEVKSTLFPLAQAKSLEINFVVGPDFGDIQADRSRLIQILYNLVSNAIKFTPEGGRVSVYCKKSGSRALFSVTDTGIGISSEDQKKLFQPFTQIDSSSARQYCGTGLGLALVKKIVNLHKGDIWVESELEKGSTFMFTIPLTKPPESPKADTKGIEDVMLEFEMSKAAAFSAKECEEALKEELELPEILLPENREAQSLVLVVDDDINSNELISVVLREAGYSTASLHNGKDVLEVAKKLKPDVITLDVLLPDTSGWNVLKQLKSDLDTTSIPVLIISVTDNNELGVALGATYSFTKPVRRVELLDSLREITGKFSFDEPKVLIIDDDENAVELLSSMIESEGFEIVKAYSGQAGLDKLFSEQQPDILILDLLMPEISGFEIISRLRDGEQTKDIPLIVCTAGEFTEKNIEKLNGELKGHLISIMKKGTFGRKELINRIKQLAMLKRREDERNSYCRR

PK = molecular target: T6, PK (Methanosarcina acetivorans, UniProt Q8THY1); test: autophosphorylation, SDS-PAGE autoradiography; format: biochemical; conditions: labelled compound ([γ-32P]ATP 3.3 μM) with 200 μM ATP; 10 μM kinase; kinase buffer pH 8, 5 mM MgCl2
T6 construct: gene MA_4377; PAS and HK domains only (no CHASE4, HAMP, R1, R2)
T6 sequence (Q8THY1 351-765 limits assumed): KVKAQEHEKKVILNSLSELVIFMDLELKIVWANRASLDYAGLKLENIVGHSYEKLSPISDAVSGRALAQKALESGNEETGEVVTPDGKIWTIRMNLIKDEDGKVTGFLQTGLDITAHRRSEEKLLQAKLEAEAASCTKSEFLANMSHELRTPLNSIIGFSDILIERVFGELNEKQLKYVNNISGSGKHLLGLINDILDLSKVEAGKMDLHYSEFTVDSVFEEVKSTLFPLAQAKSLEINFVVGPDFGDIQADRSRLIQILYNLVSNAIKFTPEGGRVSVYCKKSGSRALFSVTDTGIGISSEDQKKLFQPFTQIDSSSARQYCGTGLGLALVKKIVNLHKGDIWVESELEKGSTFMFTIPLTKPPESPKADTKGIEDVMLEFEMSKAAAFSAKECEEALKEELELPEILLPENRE

Row | Compound | Kd (MA2013) | Kd (MA4377 (full-length)) | Kd (MA2082) | Kd (RdmS (MA0863)) | Kd (PKR1R2) | autophosphorylation, SDS-PAGE autoradiography (PK)
1 | 2′‐(3′)‐O‐(2,4,6‐trinitrophenyl)‐adenosin 5′‐triphosphat [TNP-ATP] | 28.2 ± 1.3 µM | ~11 µM | 29.6 ± 4.4 µM | 17 ± 5.7 µM | ~11 µM | –
2 | Nc1ncnc2c1ncn2[C@@H]1O[C@H](COP(=O)(O)OP(=O)(O)OP(=O)(O)O)[C@@H](O)[C@H]1O [ATP] | – | – | – | – | – | indeed displayed time‐dependent autokinase activity
